Experimental data: US20050287070A1, “Ligand-specific opening of a gated-porin channel in the outer membrane of living bacteria” (priority 1997, published 2005)

Target: T1, Escherichia coli ferric enterobactin receptor, FepA (FepAE280C) (Escherichia coli, UniProt P05825, E302C)
T1 construct: expressed in transfected cells; host or cells: E. coli KDF541 (fepA, tonB+) carrying pFepAE280C; also KDF570 (fepA, tonB)
Format: cell-based
Method: Indicated at (A) are ESR analyses of MTSL-labeled bacteria expressing FepAE280C, KDF541(9) containing pITS449 of pFepAE280C was grown in LB medium and subcultured into T medium plus appropriate nutritional supplements at 1%. After 16 hours, bacteria were harvested and suspended in labeling buffer [50 mM Mops and 60 mM NaCl (PH7.5)]. Spin labels were added (to a final concentration of 20 μM MTSL or 10 μM MAL6) and incubated 2 hours at room temperature with shaking, and the cells were washed twice with reaction buffer containing 0.05% Tween-20 and once with reaction buffer alone. […] For ESR analysis, 10^10 cells were suspended in 100 μl of 0.01 M NaHPO4 (pH 6.9) containing 0.4% glucose. X-band spectra of MTSL-labeled KDF541/pFepAE280C (top), KDF541/pITS449 (fepA^+; center), or KDF541 (fepA; bottom) were recorded on a Bruker EMX spectrometer, operating at 9.8 GHz with a total scan range of 150 G and 100-kHz modulation frequency, at 4° C. in a quartz flat cell. Peaks a and b show the position of strongly and weakly immobilized spin labels, respectively. Indicated at (B) are [^125I]-labeled protein A Western blots with anti-MAL6 sera. MAL6 was coupled to bovine serum albumin (BSA) and ovalbumin (OVA). New Zealand White rabbits were immunized with BSA-MAL6 conjugates [100 μg/week for 1 month (29)], and polyclonal serum was collected in week 5 and assayed for antigen specificity by enzyme-linked immunosorbent assay (30) and Western blots against BSA, BSA-MAL6, OVA, and OVA-MAL6 (lanes 1 through 4, respectively). Lysates (5×10^7 cells) of KDF541, KDF541/pITS449, and KDF541/pFepAE280C, previously labeled with MAL6, as described above, were reacted with the anti-MAL6 polyclonal serum (lanes 5 through 7, respectively). Arrows indicate the positions of (top to bottom) FepAE280C-MAL6, BSA-MAL6, BSA, and OVA-MAL6.
KDF541/pFepAE280C was grown, spin-labeled, and prepared as described in FIG. 1. Signal-averaged X-band spectra (six field sweeps collected over an 8-minute period) of spin-labeled bacteria were recorded at 4° C. as indicated at (A) and again after warming the flat cell to 37° C. [indicated at (B) (31)]. A fresh aliquot of cells from the same labeling reaction was suspended in saturating ferric enterobactin (300 μM) at 4° C. as indicated at (C), the sample was warned to 37° C., and spectra were recorded after 5 minutes, as indicated at (D), and 15 minutes, as indicated at (E) (midpoints of the signal-average measurements). The bacteria were then cooled again to 4° C. for 30 minutes, and spectra were recorded, as indicated at (F). Each of the spectra was double-integrated, as indicated at (G), from 3405 to 3555 G to determine the total number of MTSL spins (O) and from 3443 to 3477 G to determine the spins derived from the strongly immobilized (a) and weakly immobilized (b) peaks (●).
KDF541/pFepAE280C was grown, spin-labeled, and prepared as described in FIG. 1. Singla-averaged X-band spectra (six field sweeps collected over an 8-minute period) of spin-labeled bacteria were recorded in the presence of saturating levels of colicin B (10 μM) at 4° C., as indicated at (A). The sample was warmed to 37° C. and analyzed after 5 minutes, as indicated at (B), 15 minutes, as indicated at (C), and 75 minutes, as indicated at (D) (midpoints of signal average measurement before recooling to 4° C., as indicated at (E). The same strain was grown in minimal media and starved for glucose for 2 hours to deplete its energy stores, spin-labeled, and exposed to colicin B (10 μM) at 37° C. for 30 minutes, as indicated at (F). The spectra were double-integrated, as indicated at (G), as described in FIG. 2.
KDF541/pFepAE280C was grown, spin-labeled, and prepared as described in FIG. 1.

[1] = ferric enterobactin in excess, 37° C.

T1 sequence (P05825 23-746 E302C): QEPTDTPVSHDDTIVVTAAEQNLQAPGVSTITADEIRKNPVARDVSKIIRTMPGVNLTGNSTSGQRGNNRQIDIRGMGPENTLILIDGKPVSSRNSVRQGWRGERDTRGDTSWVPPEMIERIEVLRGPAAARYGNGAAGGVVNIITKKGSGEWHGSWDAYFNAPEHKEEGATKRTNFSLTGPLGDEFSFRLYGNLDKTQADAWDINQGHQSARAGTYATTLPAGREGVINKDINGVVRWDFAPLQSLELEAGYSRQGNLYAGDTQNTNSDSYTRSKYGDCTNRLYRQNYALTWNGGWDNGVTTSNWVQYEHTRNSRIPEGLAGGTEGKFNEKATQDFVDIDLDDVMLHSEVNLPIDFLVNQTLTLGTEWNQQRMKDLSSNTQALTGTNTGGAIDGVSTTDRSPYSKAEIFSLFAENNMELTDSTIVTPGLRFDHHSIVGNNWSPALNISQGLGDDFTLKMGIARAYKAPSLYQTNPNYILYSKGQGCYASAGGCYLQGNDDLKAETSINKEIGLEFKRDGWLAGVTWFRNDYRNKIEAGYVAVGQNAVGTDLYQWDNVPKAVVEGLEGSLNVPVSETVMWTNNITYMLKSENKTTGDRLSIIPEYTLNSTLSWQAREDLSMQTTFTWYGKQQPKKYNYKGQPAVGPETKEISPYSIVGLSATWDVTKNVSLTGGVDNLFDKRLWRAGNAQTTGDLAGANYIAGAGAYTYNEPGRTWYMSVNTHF

Molecule	time over which immobilization of MTSL at residue 280 became more severe (cells with bound colicin warmed to 37° C.) [min]	effect on MTSL mobility during continual incubation at 4° C. (colicin bound, 4° C., over the course of 1 hour)	effect on MTSL mobility in signal-averaged X-band spectra (saturating colicin B (10 μM), 37° C.)	period over which the burst of spin-label motion peaked and receded (ferric enterobactin 300 μM, 37° C., continuous monitoring at 3472 G) [min]	effect on MTSL mobility (weakly immobilized peak at 3472 G) monitored over time (ferric enterobactin 300 μM, KDF541/pFepAE280C, glucose present, warmed from 4° C. to 37° C.)	time for first surge in motion to decay [1] [s]	time for first surge in motion to peak [1] [s]
colicin B	30	did not take place	progressively eliminated weakly immobilized spins				
O=C(N[C@H]1COC(=O)[C@@H](NC(=O)c2cccc([O-])c2[O-])COC(=O)[C@@H](NC(=O)c2cccc([O-])c2[O-])COC1=O)c1cccc([O-])c1[O-].[Fe+3] [ferric enterobactin]				5	stimulated a burst of motion	140	140
